# Measurements as given in patent US12528786B2, “Plasma kallikrein inhibitors” (Merck Sharp & Dohme LLC, priority 2020, dated 2026).
# Target: T1, Human plasma kallikrein (Homo sapiens, UniProt P03952)
# T1 construct: yields a heavy chain (371 amino acids) and a light chain (248 amino acids); purchased Enzyme Research Laboratories
# Test: Kallikrein Assay (fluorogenic substrate hydrolysis, AFC release)
# Format: biochemical
# Conditions: purified Human plasma kallikrein 0.5 nM; substrate Acetyl-K—P—R-AFC 100 mM; 50 mM HEPES pH 7.4
# Experimental: The effectiveness of a compound of the present invention as an inhibitor of Kallikrein can be determined using a relevant purified serine protease, and an appropriate synthetic substrate. The rate of hydrolysis of the chromogenic or fluorogenic substrate by the relevant serine protease was measured both in the absence and presence of compounds of the present invention. Assays were conducted at room temperature or at 37° C. […] A decrease in the rate of fluorescence change in the presence of inhibitor is indicative of enzyme inhibition. Such methods are known to one skilled in the art. The results of this assay are expressed as the half-maximal inhibitory concentrations (IC50), or the inhibitory constant, Ki.
# Kallikrein determinations were made in 50 mM HEPES buffer at pH 7.4 containing 150 mM NaCl, 5 mM CaCl2), and 0.1% PEG 8000 (polyethylene glycol; Fisher Scientific). Determinations were made using purified Human plasma kallikrein at a final concentration of 0.5 nM (Enzyme Research Laboratories) and the synthetic substrate, Acetyl-K—P—R-AFC (Sigma #C6608) at a concentration of […].
# Activity assays were performed by diluting a stock solution of substrate at least tenfold to a final concentration ≤0.2 Km into a solution containing enzyme or enzyme equilibrated with inhibitor. Times required to achieve equilibration between enzyme and inhibitor were determined in control experiments. The reactions were performed under linear progress curve conditions and fluorescence increase measured at 405 Ex/510 Em nm. Values were converted to percent inhibition of the control reaction (after subtracting 100% Inhibition value). IC50 was determined by inflection point from a four parameter logistic curve fit. Ki was calculated using the Cheng Prusoff equation, Ki=IC50/(1+([S]/Km)).
# T1 sequence (P03952 391-638 limits assumed): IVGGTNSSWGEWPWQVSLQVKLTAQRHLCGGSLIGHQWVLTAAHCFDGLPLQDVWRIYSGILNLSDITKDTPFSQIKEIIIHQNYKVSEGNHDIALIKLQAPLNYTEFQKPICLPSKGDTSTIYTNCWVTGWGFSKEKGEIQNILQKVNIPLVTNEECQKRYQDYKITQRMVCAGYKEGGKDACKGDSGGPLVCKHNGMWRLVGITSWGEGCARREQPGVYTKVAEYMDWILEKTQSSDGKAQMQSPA
# T1 sequence (P03952 20-390 partner limits assumed): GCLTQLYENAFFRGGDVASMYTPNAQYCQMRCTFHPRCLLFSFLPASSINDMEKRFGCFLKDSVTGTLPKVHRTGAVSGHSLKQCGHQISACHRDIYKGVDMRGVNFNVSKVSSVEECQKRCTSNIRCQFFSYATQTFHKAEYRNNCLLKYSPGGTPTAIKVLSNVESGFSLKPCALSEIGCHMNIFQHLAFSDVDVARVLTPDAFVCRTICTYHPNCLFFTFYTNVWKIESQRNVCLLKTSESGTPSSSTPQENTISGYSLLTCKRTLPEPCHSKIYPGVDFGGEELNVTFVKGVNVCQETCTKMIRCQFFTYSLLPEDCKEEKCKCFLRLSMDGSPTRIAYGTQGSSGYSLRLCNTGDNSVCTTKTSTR
row,Compound,IC50
1,"Cc1c(C(C)n2cc(C(=O)N[C@H]3C[C@@H](c4cc(Cl)ccc4C#N)C3)cn2)nnc(N2C[C@H]3C[C@H]3C2=O)c1C (single isomer, unassigned) [Example 42, N-((cis)-3-(5-chloro-2-cyanophenyl)cyclobutyl)-1-((S or R)-1-(4,5-dimethyl-6-((1R,5S)-2-oxo-3-azabicyclo[3.1.0]hexan-3-yl)pyridazin-3-yl)ethyl)-1H-pyrazole-4-carboxamide]",0.3 nM
2,"COc1c(N2C[C@H]3C[C@H]3C2=O)ncc(C(C)n2cc(C(=O)N[C@H]3C[C@@H](c4cc(Cl)ccc4C#N)C3)cn2)c1C (single isomer, unassigned) [Example 43, N-((cis)-3-(5-chloro-2-cyanophenyl)cyclobutyl)-1-((R or S)-1-(5-methoxy-4-methyl-6-((1R,5S)-2-oxo-3-azabicyclo[3.1.0]hexan-3-yl)pyridin-3-yl)ethyl)-1H-pyrazole-4-carboxamide]",1.8 nM
3,"COc1c(N2C[C@H]3C[C@H]3C2=O)ncc(C(C)n2cc(C(=O)N[C@H]3C[C@@H](c4cc(Cl)ccc4C#N)C3)cn2)c1C (single isomer, unassigned) [Example 44, N-((cis)-3-(5-chloro-2-cyanophenyl)cyclobutyl)-1-((S or R)-1-(5-methoxy-4-methyl-6-((1R,5S)-2-oxo-3-azabicyclo[3.1.0]hexan-3-yl)pyridin-3-yl)ethyl)-1H-pyrazole-4-carboxamide]",0.2 nM
4,"Cc1ccc(C#N)c([C@H]2C[C@@H](NC(=O)c3cnn(C(C)c4cnc(N5C[C@H]6C[C@H]6C5=O)c(C)c4C)c3)C2)c1 (single isomer, unassigned) [Example 45, N-((cis)-3-(2-cyano-5-methylphenyl)cyclobutyl)-1-((R or S)-1-(4,5-dimethyl-6-((1R,5S)-2-oxo-3-azabicyclo[3.1.0]hexan-3-yl)pyridin-3-yl)ethyl)-1H-pyrazole-4-carboxamide]",0.2 nM
5,"Cc1ccc(C#N)c([C@H]2C[C@@H](NC(=O)c3cnn(C(C)c4cnc(N5C[C@H]6C[C@H]6C5=O)c(C)c4C)c3)C2)c1 (single isomer, unassigned) [Example 46, N-((cis)-3-(2-cyano-5-methylphenyl)cyclobutyl)-1-((S or R)-1-(4,5-dimethyl-6-((1R,5S)-2-oxo-3-azabicyclo[3.1.0]hexan-3-yl)pyridin-3-yl)ethyl)-1H-pyrazole-4-carboxamide]",2.7 nM
6,"Cc1cc(N2C[C@H]3C[C@H]3C2=O)nnc1C(C)n1cc(C(=O)N[C@H]2C[C@@H](c3cc(Cl)ccc3C#N)C2)cn1 (single isomer, unassigned) [Example 47, N-((cis)-3-(5-chloro-2-cyanophenyl)cyclobutyl)-1-((R or S)-1-(4-methyl-6-((1R,5S)-2-oxo-3-azabicyclo[3.1.0]hexan-3-yl)pyridazin-3-yl)ethyl)-1H-pyrazole-4-carboxamide]",2.1 nM
7,"Cc1cc(N2C[C@H]3C[C@H]3C2=O)nnc1C(C)n1cc(C(=O)N[C@H]2C[C@@H](c3cc(Cl)ccc3C#N)C2)cn1 (single isomer, unassigned) [Example 48, N-((cis)-3-(5-chloro-2-cyanophenyl)cyclobutyl)-1-((S or R)-1-(4-methyl-6-((1R,5S)-2-oxo-3-azabicyclo[3.1.0]hexan-3-yl)pyridazin-3-yl)ethyl)-1H-pyrazole-4-carboxamide]",127 nM
8,"COCc1nn(C(C)c2cnc(N3C[C@H]4C[C@H]4C3=O)cc2C)cc1C(=O)N[C@H]1C[C@@H](c2cc(Cl)ccc2C#N)C1 (single isomer, unassigned) [Example 49, N-((cis)-3-(5-chloro-2-cyanophenyl)cyclobutyl)-3-(methoxymethyl)-1-((R or S)-1-(4-methyl-6-((1R,5S)-2-oxo-3-azabicyclo[3.1.0]hexan-3-yl)pyridin-3-yl)ethyl)-1H-pyrazole-4-carboxamide]",0.4 nM
9,"COCc1nn(C(C)c2cnc(N3C[C@H]4C[C@H]4C3=O)cc2C)cc1C(=O)N[C@H]1C[C@@H](c2cc(Cl)ccc2C#N)C1 (single isomer, unassigned) [Example 50, N-((cis)-3-(5-chloro-2-cyanophenyl)cyclobutyl)-3-(methoxymethyl)-1-((S or R)-1-(4-methyl-6-((1R,5S)-2-oxo-3-azabicyclo[3.1.0]hexan-3-yl)pyridin-3-yl)ethyl)-1H-pyrazole-4-carboxamide]",8.2 nM
10,"Cc1ccc(C#N)c([C@H]2C[C@@H](NC(=O)c3cnn(C(C)c4cnc(N5C[C@H]6C[C@H]6C5=O)c(C)n4)c3)C2)n1 (single isomer, unassigned) [Example 51, N-((cis)-3-(3-cyano-6-methylpyridin-2-yl)cyclobutyl)-1-((R or S)-1-(6-methyl-5-((1R,5S)-2-oxo-3-azabicyclo[3.1.0]hexan-3-yl)pyrazin-2-yl)ethyl)-1H-pyrazole-4-carboxamide]",2.4 nM
11,"Cc1ccc(C#N)c([C@H]2C[C@@H](NC(=O)c3cnn(C(C)c4cnc(N5C[C@H]6C[C@H]6C5=O)c(C)n4)c3)C2)n1 (single isomer, unassigned) [Example 52, N-((cis)-3-(3-cyano-6-methylpyridin-2-yl)cyclobutyl)-1-((S or R)-1-(6-methyl-5-((1R,5S)-2-oxo-3-azabicyclo[3.1.0]hexan-3-yl)pyrazin-2-yl)ethyl)-1H-pyrazole-4-carboxamide]",10.1 nM
12,"Cc1cc(N2C[C@H]3C[C@H]3C2=O)nnc1C(C)n1cc(C(=O)N[C@H]2C[C@@H](c3cc(Cl)ccc3C#N)C2)cn1 (single isomer, unassigned) [Example 53, N-((cis)-3-(5-chloro-2-cyanophenyl)cyclobutyl)-1-((R or S)-1-(4-methyl-6-((1R,5S)-2-oxo-3-azabicyclo[3.1.0]hexan-3-yl)pyridazin-3-yl)ethyl)-1H-pyrazole-4-carboxamide]",4.7 nM
13,"Cc1cc(N2C[C@H]3C[C@H]3C2=O)nnc1C(C)n1cc(C(=O)N[C@H]2C[C@@H](c3cc(Cl)ccc3C#N)C2)cn1 (single isomer, unassigned) [Example 54, N-((cis)-3-(5-chloro-2-cyanophenyl)cyclobutyl)-1-((S or R)-1-(4-methyl-6-((1R,5S)-2-oxo-3-azabicyclo[3.1.0]hexan-3-yl)pyridazin-3-yl)ethyl)-1H-pyrazole-4-carboxamide]",239 nM
14,"Cc1cc([C@@H](C)n2cc(C(=O)N[C@H]3C[C@@H](c4cc(Cl)ccc4C#N)C3)nn2)cnc1N1C[C@H]2C[C@H]2C1=O (single isomer, unassigned) [Example 55]",0.6 nM
15,"Cc1cc([C@H](C)n2cc(C(=O)N[C@H]3C[C@@H](c4cc(Cl)ccc4C#N)C3)nn2)cnc1N1C[C@H]2C[C@H]2C1=O (single isomer, unassigned) [Example 56]",1.5 nM
16,"CC(c1ccc(N2C[C@H]3C[C@H]3C2=O)nc1)n1cc(C(=O)N[C@H]2C[C@@H](c3cc(Cl)ccc3C#N)C2)nn1 (single isomer, unassigned) [Example 57, N-((cis)-3-(5-chloro-2-cyanophenyl)cyclobutyl)-1-((R or S)-1-(6-((1R,5S)-2-oxo-3-azabicyclo[3.1.0]hexan-3-yl)pyridin-3-yl)ethyl)-1H-1,2,3-triazole-4-carboxamide]",7.7 nM
